Among the test systems are RPMI-8226 leukemia; SN12C renal; HCT-15 colon; UACC-62 melanoma; HOP-62 NSCLC; A498 renal; HT29 colon; SR leukemia.
What all share (assay): NCI anticancer screen, dose series, 48 h

The record followed here is PubChem BioAssay (NCI).

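Assay format: 96-well plates, 48-hour exposure. The concentration for 50% growth inhibition is given as GI50. TGI denotes the concentration required for complete inhibition of growth.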 Where only a bound is given, the exact number is not on record here.

In the case of `CCCCNC(=O)C1C(=O)N(CCCC)C(=O)/C1=N\N` (configuration not stated), the TGI in the experiment on RPMI-8226 leukemia, with SN12C renal, with HCT-15 colon, with UACC-62 melanoma, with HOP-62 NSCLC and in the experiment with A498 renal was over 100 µM throughout. The same compound showed a TGI with HT29 colon of over 100 µM.
With `COc1ccc2c(O)c(/C=C3\N=Nc4ccccc43)oc2c1C[C@@H]1CCNC[C@H]1F`, the GI50 in the experiment with RPMI-8226 leukemia was 7.05 µM; in the experiment on HCT-15 colon, 14.2 µM; in the experiment on HOP-62 NSCLC it was 11.1 µM; with A498 renal it was 11.3 µM; in the experiment with SR leukemia it was 1.5 µM; with HT29 colon, 2.7 µM. Moreover, the TGI with RPMI-8226 leukemia came to 30.5 µM; with HCT-15 colon it was 28.9 µM; in the experiment on HOP-62 NSCLC it was 24.6 µM; with A498 renal, 25.6 µM; in the experiment on SR leukemia, 5.48 µM; in the experiment on HT29 colon, 11 µM.
Take `COc1ccc(Sc2nc3cc(N)cc(N)c3nc2-c2ccccc2)cc1`: the GI50 in the experiment on RPMI-8226 leukemia was 3.96 µM; with SN12C renal, over 100 µM; in the experiment on UACC-62 melanoma it was 38 µM; in the experiment with HOP-62 NSCLC, over 100 µM; in the experiment on A498 renal, over 100 µM. Further, the TGI is 84.4 µM in the experiment on RPMI-8226 leukemia; over 100 µM in the experiment on SN12C renal; over 100 µM in the experiment on UACC-62 melanoma; over 100 µM in the experiment on HOP-62 NSCLC; over 100 µM in the experiment on A498 renal.
With `CCCCCCCCCCCCSC1=C(Cl)C(=O)C(OC)=C(OC)C1=O`, the GI50 in the experiment on RPMI-8226 leukemia was 0.239 µM; in the experiment on SN12C renal, 1.75 µM; in the experiment on HCT-15 colon, 1.69 µM; with UACC-62 melanoma, 2.36 µM; in the experiment on HOP-62 NSCLC, 6.07 µM; with HT29 colon, 3.22 µM. The TGI in the experiment on RPMI-8226 leukemia was 3.7 µM; in the experiment on SN12C renal, 16.5 µM; in the experiment on HCT-15 colon, 27.8 µM; in the experiment on UACC-62 melanoma it was 17.6 µM; in the experiment with HOP-62 NSCLC it was 18.5 µM; in the experiment with A498 renal, 14.1 µM. The compound also had a TGI in the experiment with HT29 colon of 17.5 µM.
Turning to `N#C[Se]CCN1C(=O)C2C(C1=O)[C@H]1C=C[C@@H]2S1` (some centres not stated), the GI50 in the experiment on RPMI-8226 leukemia is 2.04 µM; in the experiment on SN12C renal, 1.92 µM; in the experiment on HCT-15 colon, 2.2 µM; in the experiment on UACC-62 melanoma, 1.98 µM; with A498 renal, 1.51 µM; with SR leukemia, 1.98 µM. Further, the GI50 in the experiment on HT29 colon was 2.65 µM. Also, the TGI is 4.84 µM in the experiment on RPMI-8226 leukemia; 4.07 µM in the experiment with SN12C renal; 5.77 µM in the experiment on HCT-15 colon; 4.27 µM with UACC-62 melanoma; 3.33 µM in the experiment on A498 renal; 7.7 µM with SR leukemia. The same compound gave a TGI with HT29 colon of 8.98 µM.
Regarding `C=C1C(=O)O[C@H]2[C@H]1CC/C(C=Nc1c(N)cc(C(F)(F)F)cc1C(F)(F)F)=C\CC[C@@]1(C)O[C@@H]21`, the GI50 in the experiment with RPMI-8226 leukemia was 0.441 µM; with HCT-15 colon, 1.05 µM; with UACC-62 melanoma, 1.28 µM; in the experiment on HOP-62 NSCLC it was 2 µM; in the experiment with A498 renal, 1.49 µM; in the experiment on SR leukemia it was 0.567 µM. Moreover, the GI50 with HT29 colon was 1.13 µM. Also, the TGI was found to be 3.26 µM with RPMI-8226 leukemia; 3.73 µM in the experiment on HCT-15 colon; 2.99 µM in the experiment with UACC-62 melanoma; 4.19 µM in the experiment with HOP-62 NSCLC; 3.51 µM with A498 renal; 5.17 µM in the experiment on SR leukemia. This compound came in with a TGI in the experiment with HT29 colon of 3.1 µM.
Regarding `CN(C)CCCCC(C(=O)CBr)(c1ccccc1)c1ccccc1`, the GI50 in the experiment on RPMI-8226 leukemia was 1.96 µM; with SN12C renal, 1.98 µM; with HCT-15 colon, 1.64 µM; with UACC-62 melanoma, 1.64 µM; with HOP-62 NSCLC, 8.06 µM; in the experiment on SR leukemia, 2.12 µM. Also, the GI50 in the experiment with HT29 colon was 1.92 µM. Also, the TGI in the experiment with RPMI-8226 leukemia came to 5.53 µM; in the experiment with SN12C renal, 5.07 µM; with HCT-15 colon, 3.37 µM; with UACC-62 melanoma, 4.14 µM; in the experiment with HOP-62 NSCLC, 23.6 µM; in the experiment with SR leukemia, 7.02 µM. This compound yielded a TGI in the experiment on HT29 colon of 3.94 µM.
`Cc1cc(Nc2ncc3c(n2)N(C)C(=O)N(c2cc(NC(=O)c4cccc(C(F)(F)F)c4)ccc2C)C3)n(C)n1`: the GI50 in the experiment with RPMI-8226 leukemia is 0.641 µM; in the experiment on SN12C renal, 0.0167 µM; in the experiment on HCT-15 colon it was 0.196 µM; in the experiment on HOP-62 NSCLC, 0.0769 µM; with A498 renal, 0.0158 µM; with SR leukemia, 0.0264 µM. Further, the GI50 in the experiment on HT29 colon was 0.023 µM. The TGI is 18.6 µM in the experiment with RPMI-8226 leukemia; over 100 µM with SN12C renal; over 46.4 µM in the experiment on HCT-15 colon; over 15.6 µM in the experiment on HOP-62 NSCLC; 0.0458 µM in the experiment on A498 renal; 1.21 µM in the experiment with SR leukemia. The same compound came in with a TGI in the experiment with HT29 colon of 0.0864 µM.
For `COc1ccc2cc(C(=O)/C=C/c3ccc(N(C)C)cc3)ccc2c1`, the GI50 was over 100 µM with RPMI-8226 leukemia; over 100 µM with SN12C renal; 57.3 µM with HCT-15 colon; over 100 µM with UACC-62 melanoma; over 100 µM in the experiment on HOP-62 NSCLC; 79.1 µM in the experiment with SR leukemia. Also, in the experiment with HT29 colon, the GI50 was over 100 µM. Also, the TGI in the experiment on RPMI-8226 leukemia, in the experiment on SN12C renal, in the experiment on HCT-15 colon, in the experiment on UACC-62 melanoma, in the experiment on HOP-62 NSCLC and in the experiment with SR leukemia was over 100 µM throughout. This compound also had a TGI with HT29 colon of over 100 µM.
In the case of `CCOC(=O)C(N=C(c1ccccc1)c1ccccc1)N(C(=O)OC(C)(C)C)C(=O)OC(C)(C)C` (configuration not stated), the TGI with RPMI-8226 leukemia, in the experiment with SN12C renal, in the experiment on HCT-15 colon, with UACC-62 melanoma, in the experiment on SR leukemia and with HT29 colon was over 100 µM in each case.
Regarding `COc1ccc2c(c1)oc(=O)c1cc(OC)ccc12`, the GI50 is over 100 µM in the experiment with RPMI-8226 leukemia; over 100 µM with SN12C renal; over 100 µM with HCT-15 colon; 63 µM in the experiment with UACC-62 melanoma; over 100 µM in the experiment on HOP-62 NSCLC; 1.56 µM in the experiment with A498 renal. Also, in the experiment with HT29 colon, the GI50 is over 100 µM. The TGI in the experiment with RPMI-8226 leukemia is over 100 µM; in the experiment on SN12C renal it was over 100 µM; in the experiment on HCT-15 colon, over 100 µM; in the experiment with UACC-62 melanoma, over 100 µM; in the experiment on HOP-62 NSCLC, over 100 µM; in the experiment with A498 renal it was 99 µM. For the same compound, the TGI in the experiment with HT29 colon is over 100 µM.
